Where a name gives a salt, the structure may show the parent alone.
Assays:
[1] = tested on: human endometrial adenocarcinoma Ishikawa cells; assay: Alkaline phosphatase activity in Ishikawa cells (Example 11); assay type: cell-based; settings: for Stimulation of alkaline phosphatase by tested compounds % of 1 nM E2 stimulation: intrinsic estrogenic activity; for IC50: Homo sapiens, Ishikawa, 120 h, read-out: Inhibition of 1 nM E2 stimulation of alkaline phosphatase by tested compounds IC50
Description: The human Ishikawa cell line derived from a well differentiated endometrial adenocarcinoma was kindly provided by Dr. Erlio Gurpide, The Mount Sinai Medical Center, New York, N.Y. The Ishikawa cells were routinely maintained in Eagle's Minimum Essential Medium (MEM) containing 5% (vol/vol) FBS and supplemented with 100 U/ml penicillin, 100 μg/ml streptomycin, 0.1 mM Non-essential Amino Acids solution. Cells were plated in Falcon T75 flasks at a density of 1.5×10^6 cells at 37 C.
Twenty four hours before the start of an experiment, the medium of near confluent Ishikawa cells was replaced by fresh estrogen-free basal medium (EFBM) consisting of a 1:1 (v:v) mixture of phenol red-free Ham's F-12 and Dulbecco's Modified Eagle's Medium (DMEM) supplemented with 100 U/mL penicillin, 100 μg/mL Streptomycin, 2 mM glutamine, and 5% FBS treated twice with dextran-coated charcoal to remove endogenous steroids. Cells were then harvested by 0.1% pancreatin (Sigma) and 0.25 mM HEPES, resuspended in EFBM and plated in Falcon 96 well flat-bottomed microtiter plates at a density of 2.2×10^4 cells/well in a volume of 100 μl and allowed to adhere to the surface of the plates for 24 h. Thereafter, medium was replaced with fresh EFBM containing the indicated concentrations of compounds in a final volume of 200 μl. Cells were incubated for five days, with a medium change after 48 h.
At the end of the incubation period, microtiter plates were inverted and growth medium was decanted. The plates were rinsed with 200 μL by well of PBS (0.15M NaCl, 10 mM sodium phosphate, pH 7.4). PBS was then removed from the plates while carefully leaving some residual PBS, and the wash procedure was repeated once. The buffered saline was then decanted, and the inverted plates were blotted gently on a paper towel. Following replacement of the covers, the plates were placed at −80 C for 15 min followed by thawing at room temperature for 10 min. The plates were then placed on ice, and 50 μl of an ice-cold solution containing 5 mM p-nitrophenyl phosphate, 0.24 mM MgCl2, and 1 M diethanolamine (pH 9.8) was added. Plates were then warmed to room temperature, and the yellow color from the production of p-nitrophenyl was allowed to develop (8 min). Plates were monitored at 405 nm in an enzyme-linked immunosorbent assay plate reader (BIO-RAD, model 2550 EIA Reader).
Dose-response curves as well as IC50 values were calculated using a weighted iterative nonlinear squares regression.

[2] = tested on: ovariectomized female rats; assay: Uterine weight, fat and lipid, 20-day treatment (Example 13); assay type: in vivo, Rattus norvegicus; settings: 20 days
Description: The objective of this study was to compare the effect on uterine, weight, fat and blood lipids following treatment with EM-652.HCl, ERA-923 and lasofoxifene, administered alone or in combination with EM-652.HCl, to ovariectomized female rats. For this purpose, each compound was administered orally for 20 days to ovariectomized female rats and at the end of the treatment period, the uterus and fat were collected and weighed.
d) Diet: • Certified Rodent feed (Lab Diet #5002, pellets) and tap water were provided ad libitum. Randomization:
Seventy rats were separated into 7 groups of 9 to 11 animals for conduct of the study outlined below:
Animals from groups 2 to 9 were ovariectomized under Isoflurane-induced anesthesia on Day 7 of the study.
The vehicle or tested compounds were given as suspension in 0.4% methylcellulose by oral gavage (0.5 ml/gavage/rat) from Day 2 to Day 21 of the study.
Rats were weighed on Study Day 1 and at the necropsy (SD 22).
Approximately 24 hours after the last dosing, overnight fasted rats under Isoflurane-induced anesthesia were killed by exsanguination at the abdominal aorta.
Uteri and retroperitonal adipose tissue were removed and weighed.

[3] = tested on: ovariectomized female rats; assay: SERM comparison, energy balance and lipid-lipoprotein metabolism (Example 10); assay type: in vivo, Rattus norvegicus; settings: OVX rats, 20 days; for Serum insulin (in words): 0.5 mg/rat; for Brown adipose tissue Lipoprotein lipase activity / Brown adipose tissue weight / Cumulative food intake / Serum glucose / Serum insulin / Serum leptin / Serum total cholesterol / Serum triglycerides / Soleus muscle Lipoprotein lipase activity / Soleus muscle weight / Total weight / VastusLateralis muscle weight / White adipose tissue inguinal Lipoprotein lipase activity / White adipose tissue inguinal weight / White adipose tissue retroperitoneal Lipoprotein lipase activity / White adipose tissue retroperitoneal weight: high carbohydrate diet, 0.5 mg/rat oral gavage
Description: For this purpose, tested compounds were administered by oral gavage for 20 days (0.5 mg/rat for each compound; 0.5 ml/rat) in 0.4% methylcellulose to ovariectomized female rats.
d) Diet: • During acclimation period, rats received a certified rodent diet (Lab Diet #5002, pellet) and tap water ad libitum while during study period, they received a high carbonhydrate diet (diet #3) and tap water ad libitum. The diet was composed of (g/100 g): Corn starch, 31.2; Dextrose, 31.2; Casein, 20.0; corn oil, 6.4; dl-Methionine, 0.3; Vitamine mix, 1.0; AIN-76 mineral mix, 4.9; fiber, 5.0. Rats were fasted (with access to water only) around 07 h00 the morning of their necropsy Randomization:
Test group: Seventy-seven rats were assigned to 8 groups of 9-10 rats for conduct of the study outlined below.
On day 0 of the study, rats from group 2 to 8 were ovariectomized (by bilateral flank incision) under Isoflurane anesthesia. Rats from group 1 were sham-operated.
Rats were weighed on day 0 (surgery) and then, every 2 days during study period as well as on the day of necropsy.
Food consumption was evaluated every 2 days.
In order to determine the effect of treatments on fat percentage, body composition was measured on Day 17 of the study using dual energy x-ray absorptiometry (DEXA; QDR 4500A, Hologic, Waltham, Mass.).
On day 21 of the study, approximately 24 hours after the last dosing and 6 hours of fasting, animals under Ketamine-Xylazine anesthesia were killed by exsanguination at the abdominal aorta.
Blood lipids (Total cholesterol and Triglycerides) and glucose were measured on frozen serum samples using the Boehringer Mannheim Diagnostic Hitachi 911 Analyzer (Boehringer Mannheim Diagnostic Laboratory Systems). Circulating hormones and substrates (Insulin and leptin) were measured on serum sample using the following kits: • Insulin: Linco RIA kit • Leptin: Linco RIA kit Organs and Tissues Collected
The following tissues were collected and weighed: • Muscle (right soleus and right VLM), fat (right retroperitoneal and right inguinal), and brown adipose tissue.
A piece of ˜0.1 g of all tissues (except uterus and vagina) were frozen in liquid nitrogen and kept at −80 C for later determination of lipoprotein-lipase (LPL) activity.

[4] = tested on: ovariectomized female rats; assay: 34-week treatment with ethynyl estradiol, EM-652.HCl, Raloxifene and DHEA, body fat (Example 7); assay type: in vivo, rat; settings: OVX rats, 34 weeks
Description: The objective of this study was to assess the effect of a combined treatment with EM-652.HCl, and DHEA on body fat and body weight parameters in ovariectomized rats. For this purpose, ovariectomized rats received daily administration of EM-652.HCl (1 mg/kg), and DHEA (80 mg/kg) alone or in combination, for 34 weeks. EM-652.HCl was administered orally while DHEA was applied topically on dorsal skin. One group of animals was orally treated with 17-ethynylestradiol (0.1 mg/kg) and Raloxifene (EM-1105; 1 mg/kg) for comparison.
Ten to twelve week-old female Sprague-Dawley rats (Crl:CD(SD)Br) weighing approximately 235-250 g at start of treatment were used. Eighty rats were randomly distributed between 7 groups of 11 to 12 animals per group as follows: 1) Intact control; 2) OVX control; 3) OVX+EE2 (0.1 mg/kg); 4) OVX+raloxifene (1 mg/kg); 5) OVX+EM-652.HCl (1 mg/kg); 6) OVX+DHEA (80 mg/kg); 7) OVX+EM-652.HCl+DHEA. On day 1 of the study, the animals of the appropriate groups were bilaterally ovariectomized (OVX) under isoflurane anesthesia. EM-652.HCl, raloxifene and EE2 (Steraloids) were administered once daily by oral gavage as suspension in 0.4% methylcellulose (0.5 ml/rat) for 34 weeks while DHEA was applied topically once daily on dorsal skin as a solution in 50% ethanol-50% propylene glycol (0.5 ml/rat) for the same time period. Approximately 24 hours after the last dosing, overnight fasted animals were killed by exsanguination at the abdominal aorta under isoflurane anesthesia. Left and right retroperitoneal adipose tissues were collected and weighed.
After 34 weeks of treatment, individual rats under anesthesia with isoflurane had their whole body skeleton scanned using dual energy x-ray absorptiometry (DEXA; QDR 4500A, Hologic, Waltham, Mass.) and a Regional High Resolution Scan software. The body composition (including fat percentage) was determined.
Data were expressed as the means±SEM.

[5] = Ishikawa cells, five days incubation
[6] = OVX rats, commercial rodent diet, 0.5 mg oral, EM-652.HCl 2.5 mg in combinations
[7] = EE2 0.1, Raloxifene 1, EM-652.HCl 1 mg/kg oral, DHEA 80 mg/kg topical

Oc1ccc2c(c1)CC[C@H](c1ccccc1)[C@@H]2c1ccc(OCCN2CCCC2)cc1 [Lasofoxifene, cis-1R-[4′-pyrrolidino-ethoxyphenyl]-2S-phenyl-6-hydroxy-1,2,3,4,-tetrahydronapthalene D-(−)-tartrate salt]
Stimulation of alkaline phosphatase by tested compounds % of 1 nM E2 stimulation [1, 5]: 18 % of 1 nM E2 stimulation | OVX-induced increase in total serum cholesterol levels ([2]; 0.5 mg): completely prevented | increase of uterine weight compared to OVX control ([2]; 0.5 mg): 62% | prevention of body weight increase induced by ovariectomy ([2]; OVX rats, 0.5 mg): 127% | Cholesterol [2, 6]: 0.95 ± 0.09 mmol/L | Final Body Weight [2, 6]: 210 ± 3 g | Uterine Weight [2, 6]: 247.4 ± 9.1 mg | Serum insulin (in words) [3]: decreased | Brown adipose tissue Lipoprotein lipase activity [3]: 982 ± 98 μU/g protein | Brown adipose tissue weight [3]: 0.244 ± 0.022 g | Cumulative food intake [3]: 283 ± 14 g | Serum glucose [3]: 15.8 ± 1.3 mmol/L | Serum insulin [3]: 0.095 ± 0.017 nmol/L | Serum leptin [3]: 0.97 ± 0.29 ng/mL | Serum total cholesterol [3]: 1.29 ± 0.06 mmol/L | Serum triglycerides [3]: 0.81 ± 0.21 mmol/L | Soleus muscle Lipoprotein lipase activity [3]: 10.9 ± 1.5 μU/g protein | Soleus muscle weight [3]: 0.096 ± 0.003 g | Total weight [3]: 210 ± 2 g | VastusLateralis muscle weight [3]: 0.800 ± 0.048 g | White adipose tissue inguinal Lipoprotein lipase activity [3]: 801 ± 138 μU/g protein | White adipose tissue inguinal weight [3]: 0.187 ± 0.023 g | White adipose tissue retroperitoneal Lipoprotein lipase activity [3]: 1417 ± 163 μU/g protein | White adipose tissue retroperitoneal weight [3]: 0.867 ± 0.132 g

CC/C(=C(/c1ccc(OCCN(C)C)cc1)c1cccc(O)c1)c1ccccc1 [Droloxifene]
IC50 [1]: 0.291 ± 0.115 µM | Stimulation of alkaline phosphatase by tested compounds % of 1 nM E2 stimulation [1, 5]: 23.8 ± 3.1 (7) % of 1 nM E2 stimulation

CN(C)CCOc1ccc(/C(=C(/CCCl)c2ccccc2)c2ccc(O)cc2)cc1 [OH-Toremifene]
Stimulation of alkaline phosphatase by tested compounds % of 1 nM E2 stimulation [1, 5]: 29.6 ± 2.1 (6) % of 1 nM E2 stimulation

COc1ccc(-c2sc3cc(O)ccc3c2Oc2ccc(OCCN3CCCCC3)cc2)cc1.Cl [LY 353381]
Serum insulin (in words) [3]: decreased | Brown adipose tissue Lipoprotein lipase activity [3]: 888 ± 65 μU/g protein | Brown adipose tissue weight [3]: 0.368 ± 0.031 g | Cumulative food intake [3]: 312 ± 7 g | Serum glucose [3]: 17.1 ± 0.7 mmol/L | Serum insulin [3]: 0.104 ± 0.11 nmol/L | Serum leptin [3]: 1.22 ± 0.21 ng/mL | Serum total cholesterol [3]: 1.15 ± 0.08 mmol/L | Serum triglycerides [3]: 1.23 ± 0.28 mmol/L | Soleus muscle Lipoprotein lipase activity [3]: 10.1 ± 1.0 μU/g protein | Soleus muscle weight [3]: 0.092 ± 0.002 g | Total weight [3]: 231 ± 4 g | VastusLateralis muscle weight [3]: 0.955 ± 0.20 g | White adipose tissue inguinal Lipoprotein lipase activity [3]: 559 ± 165 μU/g protein | White adipose tissue inguinal weight [3]: 0.290 ± 0.038 g | White adipose tissue retroperitoneal Lipoprotein lipase activity [3]: 1365 ± 119 μU/g protein | White adipose tissue retroperitoneal weight [3]: 0.968 ± 0.120 g

CC/C(=C(\c1ccc(I)cc1)c1ccc(OCCN2CCCC2)cc1)c1ccccc1 [Idoxifene]
IC50 [1]: > 1 µM | Stimulation of alkaline phosphatase by tested compounds % of 1 nM E2 stimulation [1, 5]: 25.1 ± 1.5 (5) % of 1 nM E2 stimulation

CC/C(=C(\c1ccccc1)c1ccc(/C=C/C(=O)O)cc1)c1ccccc1 [GW-5638]
Inhibition of 1 nM E2 stimulation of alkaline phosphatase by tested compounds IC50 ([1]; Ishikawa cells, five days incubation, 1 nM E2, antiestrogenic activity): No inhibition | Stimulation of alkaline phosphatase by tested compounds % of 1 nM E2 stimulation [1, 5]: 7.75 ± 5.5 (2) % of 1 nM E2 stimulation

C#C[C@]1(O)CC[C@H]2[C@@H]3CCc4cc(O)ccc4[C@H]3CC[C@@]21C [EE2, 17-ethynylestradiol]
increment of body fat and retroperitoneal adipose tissue by ovariectomy [4]: prevented | Fat % ([4]; DEXA, EE2 0.1, Raloxifene 1, EM-652.HCl 1 mg/kg oral, DHEA 80 mg/kg topical): 19.8 ± 1.9% | Left retroperitoneal adipose tissue [4, 7]: 1.15 ± 0.18 g | Right retroperitoneal adipose tissue [4, 7]: 1.29 ± 0.22 g

CC/C(=C(\c1ccc(O)cc1)c1ccc(OCCN(C)C)cc1)c1ccccc1 [OH-Tamoxifen]
IC50 [1]: 0.0319 ± 0.006 µM | Stimulation of alkaline phosphatase by tested compounds % of 1 nM E2 stimulation [1, 5]: 32.4 ± 2.2 (8) % of 1 nM E2 stimulation

Source: patent US8609695B2, “Methods of treating and/or suppressing insulin resistance” (Endorecherche, Inc., priority 1999, dated 2013)
